The record followed here is patent US9018195B2, “Use of 2,5-dihydroxybenzene sulfonic acid compounds for treating skin photoaging” (AmDerma Pharmaceuticals, LLC, priority 2004, dated 2015).

In experiment [1] the test system is cell line of preadipocytes 3T3L1. Nature of the experiment: Adipogenesis assay in preadipocytes, Oil Red O staining. The class given is cell-based. The method, then: The preadipocytes were seeded in a 6 well plate where they grew up to the confluence In a standard culture medium [Dulbecco's Essential Medium (DEM)], supplemented with 1.5 g/L of sodium bicarbonate, non essential aminoacids and 10% bovine fetal serum. […] The culture medium was renewed every two days. After seven days, the differentiation to adipocytes was initiated in the six wells by the addition of dexametasone ([…]), 3-isobutyl-1-methylxanthine (0.5 mM) and insuline (160 nM) during two days, followed by the substitution of the culture medium by another culture medium containing insuline (160 nM) during five days. […] The culture medium was renewed every two days.
12 days later, the adipogenesis was determined by staining with Oil Red O to check the cytoplasmic accumulation of triglycerides. The cells were washed with phosphate buffer (PBS), fixed with 4% paraformaldehyde and stained during thirty minutes with Oil Red O. Isopropanol was used to remove the dye from the cells to quantify the accumulation of lipids; the absorbance thereof was measured at 510 nm in a spectrophotometer.

The test system of the next experiment is human photoaged skin. The experiment is described as follows: Topical treatment of human photoaged skin with cream. It is filed as in vivo. To be noted: 5% cream, potassium salt, twice a day for 3 months. An excerpt:
(§1) In this study, 2,5-dihydroxybenzenesulfonic acid, potassium salt, formulated as 5% by weight in the form of cream has been used, since this type of formulation is a habitual procedure for topical treatments of the skin. Distilled water has been used as the aqueous phase of the cream. The oil phase thereof may comprise cetyl alcohol, stearyl alcohol or vaseline. Span (sorbitan monooleate) is an effective emulsifier to make the cream.
Active principle: 2,5-dihydroxybenzenesulfonic acid, potassium salt, 5% by weight. Excipients: cetyl alcohol (2.5%), stearyl alcohol (2.5%), liquid vaseline (30%), white soft vaseline (20%), sorbitan monooleate (5%) and distilled water (q.s. to 100 g).
Lightening of skin hyperpigmentation after the application of 2,5-dihydroxybenzenesulfonic acid may justify the use thereof to treat melanic dyschromia with hyperpigmentation as occurs, among other pathologies, in the Mongolian spot, the nevus of Ota, the nevus of Ito, the nevus of Becker, ephelides (freckles), the lentigo malign melanoma, the café-au-lait macules or the melasma (chloasma).

The next experiment deals with actinic keratosis. Nature of the experiment: Topical treatment of actinic keratosis lesions in patients. It is filed as in vivo, human. To be noted: for actinic keratosis: 2.5% by weight emulsion, twice a day, two lesions in the same patient (scalp).
Description: An emulsion containing 2.5% by weight of 2,5-dihydroxybenzenesulfonic acid was used to treat two lesions of actinic keratosis in the same patient, as shown in FIGS. 4 and 5. […] Calcium salt of 2,5-dihydroxybenzenesulfonic acid was used.
as §1
Active principle: 2,5-dihydroxybenzenesulfonic acid, potassium salt, 5% by weight.
Excipients: cetyl alcohol (2.5%), stearyl alcohol (2.5%), liquid vaseline (30%), white soft vaseline (20%), sorbitan monooleate (5%) and distilled water (q.s. to 100 g).

Another experiment concerns seborrheic keratosis. The experiment is described as follows: Topical treatment of seborrheic keratosis. The class given is in vivo, human. From the text:
(§2) Topical treatment with the above described cream (twice a day for 11 days) of human skin (basal conditions shown in FIG. 2A) results in a reduction of seborrheic keratosis (big circle) as well as of viral warts (small circle), as shown in FIG. 2B.
Another example of the effect of 2,5-dihydroxybenzenesulfonate on seborrheic keratosis is shown in FIG. 3, wherein the seborrheic keratosis is reduced due to the topical treatment on the affected area for 4 weeks, twice a day, with an emulsion containing the 2,5-dihydroxybenzenesulfonic acid, 2.5% by weight.

The next experiment relates to viral warts. Nature of the experiment: Topical treatment of viral warts. It is filed as in vivo, human. To be noted: 5% cream, twice a day for 11 days.
Description: as §2

Another experiment relates to hair growth. Nature of the experiment: Effect of topical cream on hair growth. To be noted: 5% cream, potassium salt, twice a day for 3 months. The class given is in vivo, human. An excerpt:
2,5-dihydroxybenzenesulfonic acid, potassium salt, formulated in the form of cream was used and its composition was the same as that used in example 1.

In the next experiment the test system is mouse glioma C6 cells. The experiment is described as follows: Proliferation of glioma C6 cells, crystal violet. The class given is cell-based. To be noted: 500 μM, 48 hours, potassium salts, p<0.001. The method, then: The cell line used was that of mouse glioma C6 cells. Once attached, the cells were treated o not treated (controls) with (5A-2HBS) (500 μM) or (2A-5HBS) (500 μM) and they were allowed to proliferate during 48 hours. After that, the proliferation of glioma cells was evaluated by staining the fixed cells with crystal violet. The number of cells is proportional to the amount of retained dye, which was spectrophotometrically determined by measuring absorbance at 595 nm after removing the dye from the cells.

Experiment [2] deals with rabbit subcutaneous fat preadipocytes. The experiment is described as follows: Proliferation of subcutaneous fat preadipocytes, crystal violet. It is filed as cell-based. To be noted: 72 hours. The method, then:
The primary cultures of rabbit preadipocytes were obtained from the inguinal fat of New Zealand rabbits. Once the fat is removed, it is processed by mechanical disaggregation and enzymatic digestion with 0.075% type I collagenase (Gibco BRL, Paisley, Scotland, RU) for 30 minutes at 37°. The mature adipocytes are separated, removed by centrifugation (300×g, 5 min) and the cell sediment is selected. Then, the mononuclear cells with low cell density are isolated by density gradient centrifugation with Ficoll-Paque (Amersham Biosciences, Uppsala, Sweden). Once the low density mononuclear cells are obtained, they are seeded in a 75 cm^2 culture flask and cultured in an incubator at 37° C. with air containing 5% CO2, in an Eagle medium modified by Dulbecco (DMEM) (Gibco) with 10% of bovine fetal serum (Gibco) and 0.1% of antibiotic-antimicotic (Gibco). The culture medium is replaced 24 hours later to remove the cells present in the supernatant, and to select the cells adhered to the culture flask. […]
The rabbit preadipocytes proliferation experiments were carried out in 24-well plates. […] The proliferation of preadipocytes was evaluated 72 hours later, and at that moment the cells were fixed with 1% glutaraldehyde. The cellular proliferation was evaluated using the crystal violet method, by measuring the absorbance at a wave length of 595 nm.

The target in experiment [3] is T1, fibroblast growth factor-1 (FGF-1) (Homo sapiens, UniProt P05230).
T1 construct: host or cells: added to Balb/c 3T3 fibroblast cultures
T1 sequence (P05230 whole entry, species assumed): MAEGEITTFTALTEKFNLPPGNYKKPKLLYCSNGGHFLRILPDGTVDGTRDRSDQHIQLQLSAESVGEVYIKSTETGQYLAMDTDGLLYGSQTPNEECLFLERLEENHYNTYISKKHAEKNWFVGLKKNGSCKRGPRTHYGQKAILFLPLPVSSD
The experiment is described as follows: Structural interaction with FGF-1 from diffraction of complex crystals. The class given is binding. To be noted: electron density contoured at 1σ; acetoxyl groups kept when bound. The procedure: As of the diffraction from complex crystals of FGF-1: 2-acetoxy-5-hydroxybenzenesulfonic acid, FGF-1: 5-acetoxy-2-hydroxybenzenesulfonic acid and FGF-1: 2,5-diacetoxybenzenesulfonic acid, the complex structures were calculated and represented. In FIGS. 20, 21 and 22, representing the surface of the protein cloured according to its electrostatic potential (light grey: negative charge, dark grey: positive charge, white: areas with no charge), the interaction form of the 2-acetoxy-5-hydroxybenzenesulfonic acid, 5-acetoxy-2-hydroxybenzenesulfonic acid and 2,5-diacetoxybenzenesulfonic acid, respectively, with the FGF-1 may be observed.

In experiment [4] the target is T1, fibroblast growth factor-1 (FGF-1). Nature of the experiment: Inhibition of fibroblast mitogenesis induced by FGF-1 in quiescent Balb/c 3T3 cultures. It is filed as cell-based. To be noted: quiescent cultures of Balb/c 3T3 fibroblasts; potassium salts, 2-acetoxy-5-hydroxybenzenesulfonate as calcium salt. The method, then:
The evaluated compounds were used in the form of potassium salt, except in the first case in which calcium salt was used. The experiments were carried out as described in Fernández-Tornero C et al. J Biol Chem, 2003.

With `O=S(=O)(O)c1cc(O)ccc1O` [2,5-dihydroxybenzenesulfonic acid], the “number of preadipocytes differentiated in adipocytes” value in experiment [1] (3T3-L1 cells, 25 μM, during 12 hours (so in the source)) is “very significant reduction”. For the same compound, in the experiment with human photoaged skin, the “actinic lentigo areas of photoaged skin” value is recorded as “disappearance of actinic lentigo areas”. The “wrinkles of photoaged skin” value in the experiment on human photoaged skin is “reduction of the wrinkles”. Moreover, the “actinic keratosis lesion in the ear” value in the experiment on actinic keratosis (5% cream, topical, after 12 days) is on record as “reduction of the actinic keratosis”; in the experiment with actinic keratosis (5% cream, topical, after 15 days), “the lesion was cleared”. Besides, the “actinic keratosis lesion in the nose” value in the experiment with actinic keratosis (5% cream, topical, after 30 days) is “reduction of the actinic keratosis”. Besides, the seborrheic keratosis result was “reduced” with seborrheic keratosis (2.5% by weight emulsion, twice a day for 4 weeks, facial) and “reduction in the seborrheic keratosis” in the experiment with seborrheic keratosis (5% cream, twice a day for 11 days). Further, in the experiment on viral warts, the viral warts entry is “reduction”. The “hair in the area of application” value in the experiment on hair growth is reported as “disappearance of hair in the area of application”.
As for `CC(=O)Oc1ccc(O)cc1S(=O)(=O)O` [2A-5HBS, 2-acetoxy-5-hydroxybenzenesulfonic acid], in the experiment with mouse glioma C6 cells, the “proliferation of glioma cells (absorbance at 595 nm)” value was “caused the inhibition of the proliferation”. The “concentration as of which a significant effect on preadipocyte proliferation is obtained” value in experiment [2] amounted to 100 µM. Besides, the “proliferation of preadipocytes (absorbance at 595 nm)” value in experiment [2] (DHBS 10 to 100 μM, 2A-5HBS 10 to 500 μM, concentration dependent) is listed as “significantly inhibited”. In [3], the “location of the compound bound to FGF-1 in the complex crystal” value (from here on “location of the compound bound”) is reported as “located at a site very close to the site that, as described, is occupied by the 2,5-dihydroxybenzenesulfonic acid”. Moreover, the FGF-1 induced mitogenesis result in experiment [4] is “Inhibition of FGF-1 mitogenesis was observed”.
Turning to `CC(=O)Oc1ccc(O)c(S(=O)(=O)[O-])c1.[K+]` [5A-2HBS, potassium 5-acetoxy-2-hydroxybenzenesulfonate], the “proliferation of glioma cells (absorbance at 595 nm)” value in the experiment on mouse glioma C6 cells is “caused the inhibition of the proliferation”. Further, the “location of the compound bound” value in experiment [3] was “located at a site very close to the site that, as described, is occupied by the 2,5-dihydroxybenzenesulfonic acid”. The FGF-1 induced mitogenesis entry in [4] was “Inhibition of FGF-1 mitogenesis was observed”.
As to `CC(=O)Oc1ccc(OC(C)=O)c(S(=O)(=O)[O-])c1.[K+]` [DABS, potassium 2,5-diacetoxybenzene sulfonate], the “location of the compound bound” value in experiment [3] is “located at a site very close to the site that, as described, is occupied by the 2,5-dihydroxybenzenesulfonic acid”. In addition, the FGF-1 induced mitogenesis entry in [4] is recorded as “Inhibition of FGF-1 mitogenesis was observed”.
With `O=C(O)c1cc(O)ccc1O` [gentisic acid, 2,5-dihydroxybenzoic acid], the “accumulation of triglycerides (percentage of absorbance at 510 nm) versus untreated cells” value in [1] (50 μM, p<0.05) is listed as “significantly smaller”. Also, the “differentiation of the preadipocytes and adipogenesis” value in [1] (3T3-L1 preadipocytes, 50 μM, two weeks) was “inhibits the differentiation of the preadipocytes and the adipogenesis”.
In the case of `O=S(=O)([O-])c1cc(O)ccc1O.[K+]` [potassium 2,5-dihydroxybenzenesulfonate], the FGF-1 induced mitogenesis entry in experiment [4] was “Inhibition of the mitogenesis”.
calcium 2,5-dihydroxybenzenesulfonate: the actinic keratosis result is listed as “the effect was even more evident” in the experiment on actinic keratosis (after 4 weeks) and “clearly reduced” in the experiment on actinic keratosis (after 15 days).
